According to US20240025863A1, “SOS1 PROTEIN DEGRADERS, PHARMACEUTICAL COMPOSITIONS THEREOF, AND THEIR THERAPEUTIC APPLICATIONS” (BioTheryX, Inc., priority 2020, published 2024):

Assays:
Assay type in all cases: cell-based
SW480 cells (G12V) = experiment: Cell viability assay (CellTiter-Glo), SW480 cells; settings: Homo sapiens, 72 h; SW480 cells, 3 days incubation, CellTiter-Glo luminescence; read-out: Inhibition of Cancerous Cells IC50 SW480 (G12V)
Method: (§1) H358, H23, SW48, and AsPC-1 cells were cultured in RPMI 1640 media supplemented with 10% fetal bovine serum, streptomycin, and penicillin. Lovo and SW480 cells were cultured in DMEM media supplemented with 10% fetal bovine serum, streptomycin, and penicillin. The cell lines were plated in their respective medium supplemented with 2.5% fetal bovine serum, streptomycin, and penicillin. All cell lines were plated in white walled 96-well plates at 2,000 cells/well or 384-well plates at 500 cells/well, except Lovo, which were plated at 4,000 or 1,000 cells/well, respectively. The cells were incubated in DMSO (control) or a compound for 3 days at 37° C. under 5% CO2. A CELLTITER-GLO® reagent (100 μL) was then added to each well. After a 10 min incubation with shaking, luminescence was measured using an ENVISION® multimode plate reader.

Lovo cells (G13D) = experiment: Cell viability assay (CellTiter-Glo), Lovo cells; settings: Homo sapiens, 72 h; Lovo cells, 3 days incubation, CellTiter-Glo luminescence; read-out: Inhibition of Cancerous Cells IC50 Lovo (G13D)
Method: as §1

SW48 cells (wt) = experiment: Cell viability assay (CellTiter-Glo), SW48 cells; settings: Homo sapiens, 72 h; SW48 cells, 3 days incubation, CellTiter-Glo luminescence; read-out: Inhibition of Cancerous Cells IC50 SW48 (wt)
Method: as §1

H358 cells (G12C) = experiment: Cell viability assay (CellTiter-Glo), H358 cells; settings: Homo sapiens, NCI-H358, 72 h; H358 cells, 3 days incubation, CellTiter-Glo luminescence; read-out: Inhibition of Cancerous Cells IC50 H358 (G12C)
Method: as §1

Row | IC50 (SW480 cells (G12V)) [nM] | IC50 (Lovo cells (G13D)) [nM] | IC50 (SW48 cells (wt)) [nM] | IC50 (H358 cells (G12C)) [nM] | Compound
1 | 370 | 290 | 420 | 510 | CNCc1ccccc1-c1csc([C@@H](C)Nc2nc(C)nc3cc(OCCCCCCCN4CCC(c5cc6c(cc5F)C(=O)N(C5CCC(=O)NC5=O)C6)CC4)c(OC)cc23)c1 (stereo partly drawn) [Compound A25, 3-(6-Fluoro-5-(1-(7-((6-methoxy-2-methyl-4-(((R)-1-(4-(2-((methylamino)-methyl)phenyl)thiophen-2-yl)ethyl)amino)quinazolin-7-yl)oxy)heptyl)piperidin-4-yl)-1-oxoisoindolin-2-yl)piperidine-2,6-dione]
2 | 400 | 360 | 420 | 570 | CNCc1ccccc1-c1csc([C@H](C)Nc2nc(C)nc3cc(OCCCCCCCN4CCC(c5cc6c(cc5F)C(=O)N(C5CCC(=O)NC5=O)C6)CC4)c(OC)cc23)c1 (stereo partly drawn) [Compound A26, 3-(6-Fluoro-5-(1-(7-((6-methoxy-2-methyl-4-(((S)-1-(4-(2-((methylamino)-methyl)phenyl)thiophen-2-yl)ethyl)amino)quinazolin-7-yl)oxy)heptyl)piperidin-4-yl)-1-oxoisoindolin-2-yl)piperidine-2,6-dione]
3 | 590 | 580 | 940 | 1000 | COc1cc2c(N[C@H](C)c3cccc(C(F)(F)CO)c3)nc(C)nc2cc1OCCCCCCCN1CCC(c2cc3c(cc2F)C(=O)N(C2CCC(=O)NC2=O)C3)CC1 (stereo partly drawn) [Compound A27, 3-(5-(1-(7-((4-(((R)-1-(3-(1,1-Difluoro-2-hydroxyethyl)phenyl)ethyl)amino)-6-methoxy-2-methylquinazolin-7-yl)oxy)heptyl)piperidin-4-yl)-6-fluoro-1-oxoisoindolin-2-yl)-piperidine-2,6-dione]
4 | 4900 | 230 | 510 | 4500 | COc1cc2c(N[C@H](C)c3cccc(Br)c3)nc(C)nc2cc1OCCCCCN1CCN(C(=O)COc2cc3c(cc2F)C(=O)N(C2CCC(=O)NC2=O)C3)CC1 (stereo partly drawn) [Compound A31, 3-(5-(2-(4-(5-((4-(((R)-1-(3-Bromophenyl)ethyl)amino)-6-methoxy-2-methyl-quinazolin-7-yl)oxy)pentyl)piperazin-1-yl)-2-oxoethoxy)-6-fluoro-1-oxoisoindolin-2-yl)-piperidine-2,6-dione]
5 | 570 | 180 | 3300 | > 10000 | COc1cc2c(N[C@H](C)c3cccc(Br)c3)nc(C)nc2cc1OCCCCCCC(=O)N1CCC(CN2CCN(c3cc4c(cc3F)C(=O)N(C3CCC(=O)NC3=O)C4=O)CC2)CC1 (stereo partly drawn) [Compound A33, 5-(4-((1-(7-((4-(((R)-1-(3-Bromophenyl)ethyl)amino)-6-methoxy-2-methyl-quinazolin-7-yl)oxy)heptanoyl)piperidin-4-yl)methyl)piperazin-1-yl)-2-(2,6-dioxopiperidin-3-yl)-6-fluoroisoindoline-1,3-dione]
6 | 640 | 300 | 3400 | > 10000 | COc1cc2c(N[C@H](C)c3cccc(Br)c3)nc(C)nc2cc1OCCCCCCCCC(=O)N1CCC(CN2CCN(c3cc4c(cc3F)C(=O)N(C3CCC(=O)NC3=O)C4=O)CC2)CC1 (stereo partly drawn) [Compound A34, 5-(4-((1-(9-((4-(((R)-1-(3-Bromophenyl)ethyl)amino)-6-methoxy-2-methyl-quinazolin-7-yl)oxy)nonanoyl)piperidin-4-yl)methyl)piperazin-1-yl)-2-(2,6-dioxopiperidin-3-yl)-6-fluoroisoindoline-1,3-dione]
7 | 2500 | 540 | 4100 | > 10000 | COc1cc2c(N[C@H](C)c3cccc(Br)c3)nc(C)nc2cc1OCCCCCCCCCCC(=O)N1CCC(CN2CCN(c3cc4c(cc3F)C(=O)N(C3CCC(=O)NC3=O)C4=O)CC2)CC1 (stereo partly drawn) [Compound A35, 5-(4-((1-(11-((4-(((R)-1-(3-Bromophenyl)ethyl)amino)-6-methoxy-2-methyl-quinazolin-7-yl)oxy)undecanoyl)piperidin-4-yl)methyl)piperazin-1-yl)-2-(2,6-dioxopiperidin-3-yl)-6-fluoroisoindoline-1,3-dione]
8 | > 10000 | > 10000 | > 10000 | > 10000 | COc1cc2c(N[C@H](C)c3cccc(Br)c3)nc(C)nc2cc1OCCCCCC(=O)NCc1scc2c1CN(C1CCC(=O)NC1=O)C2=O (stereo partly drawn) [Compound A37, 6-((4-(((R)-1-(3-Bromophenyl)ethyl)amino)-6-methoxy-2-methylquinazolin-7-yl)oxy)-N-((5-(2,6-dioxopiperidin-3-yl)-4-oxo-5,6-dihydro-4H-thieno[3,4-c]pyrrol-1-yl)methyl)-hexanamide]
9 | 6400 | 6100 | 7900 | 6300 | COc1cc2c(N[C@H](C)c3cccc(Br)c3)nc(C)nc2cc1OCCCCCCCC(=O)NCc1scc2c1CN(C1CCC(=O)NC1=O)C2=O (stereo partly drawn) [Compound A38, 8-((4-(((R)-1-(3-Bromophenyl)ethyl)amino)-6-methoxy-2-methylquinazolin-7-yl)oxy)-N-((5-(2,6-dioxopiperidin-3-yl)-4-oxo-5,6-dihydro-4H-thieno[3,4-c]pyrrol-1-yl)methyl)-octanamide]
10 | 2600 | 790 | 210 | 680 | COc1cc2c(N[C@H](C)c3cccc(Br)c3)nc(C)nc2cc1OCCCCCCCCCC(=O)NCc1scc2c1CN(C1CCC(=O)NC1=O)C2=O (stereo partly drawn) [Compound A39, 10-((4-(((R)-1-(3-Bromophenyl)ethyl)amino)-6-methoxy-2-methylquinazolin-7-yl)oxy)-N-((5-(2,6-dioxopiperidin-3-yl)-4-oxo-5,6-dihydro-4H-thieno[3,4-c]pyrrol-1-yl)-methyl)decanamide]
11 | 2800 | 420 | 670 | > 10000 | COc1cc2c(N[C@H](C)c3cccc(Br)c3)nc(C)nc2cc1OCCCCCCCCCCCCCCCC(=O)NCc1scc2c1CN(C1CCC(=O)NC1=O)C2=O (stereo partly drawn) [Compound A49, 16-((4-(((R)-1-(3-Bromophenyl)ethyl)amino)-6-methoxy-2-methylquinazolin-7-yl)oxy)-N-((5-(2,6-dioxopiperidin-3-yl)-4-oxo-5,6-dihydro-4H-thieno[3,4-c]pyrrol-1-yl)methyl)-hexadecanamide]
12 | 470 | 430 | 790 | 960 | COc1cc2c(N[C@H](C)c3cccc(Br)c3)nc(C)nc2cc1OCCCCCCCCN1CCC(c2cc3c(cc2F)C(=O)N(C2CCC(=O)NC2=O)C3)CC1 (stereo partly drawn) [Compound A50, 3-(5-(1-(8-((4-(((R)-1-(3-Bromophenyl)ethyl)amino)-6-methoxy-2-methyl-quinazolin-7-yl)oxy)octyl)piperidin-4-yl)-6-fluoro-1-oxoisoindolin-2-yl)piperidine-2,6-dione]
13 | 640 | 160 | 290 | 390 | COc1cc2c(N[C@H](C)c3cccc(Br)c3)nc(C)nc2cc1OCCCCCCCCCCN1CCC(c2cc(F)cc3c2CN(C2CCC(=O)NC2=O)C3=O)CC1 (stereo partly drawn) [Compound A51, 3-(4-(1-(10-((4-(((R)-1-(3-Bromophenyl)ethyl)amino)-6-methoxy-2-methyl-quinazolin-7-yl)oxy)decyl)piperidin-4-yl)-6-fluoro-1-oxoisoindolin-2-yl)piperidine-2,6-dione]
14 | 170 | 42 | 170 | 210 | CNCc1ccccc1-c1csc([C@@H](C)Nc2nc(C)nc3cc(OCCCCCCCN4CCC(c5cc(F)cc6c5CN(C5CCC(=O)N(C)C5=O)C6=O)CC4)c(OC)cc23)c1 (stereo partly drawn) [Compound A52, 3-(6-Fluoro-4-(1-(7-((6-methoxy-2-methyl-4-(((R)-1-(4-(2-((methylamino)-methyl)phenyl)thiophen-2-yl)ethyl)amino)quinazolin-7-yl)oxy)heptyl)piperidin-4-yl)-1-oxoisoindolin-2-yl)-1-methylpiperidine-2,6-dione]
15 | 170 | 68 | 170 | 230 | CNCc1ccccc1-c1csc([C@H](C)Nc2nc(C)nc3cc(OCCCCCCCN4CCC(c5cc(F)cc6c5CN(C5CCC(=O)N(C)C5=O)C6=O)CC4)c(OC)cc23)c1 (stereo partly drawn) [Compound A53, 3-(6-Fluoro-4-(1-(7-((6-methoxy-2-methyl-4-(((S)-1-(4-(2-((methylamino)-methyl)phenyl)thiophen-2-yl)ethyl)amino)quinazolin-7-yl)oxy)heptyl)piperidin-4-yl)-1-oxoisoindolin-2-yl)-1-methylpiperidine-2,6-dione]
16 | 240 | 130 | 200 | 360 | CNCc1ccccc1-c1csc([C@@H](C)Nc2nc(C)nc3c(CCCCCCCN4CCC(c5cc(F)cc6c5CN(C5CCC(=O)NC5=O)C6=O)CC4)c(OC)c(OC)cc23)c1 (stereo partly drawn) [Compound A54, 3-(4-(1-(7-(6,7-Dimethoxy-2-methyl-4-(((R)-1-(4-(2-((methylamino)methyl)-phenyl)thiophen-2-yl)ethyl)amino)quinazolin-8-yl)heptyl)piperidin-4-yl)-6-fluoro-1-oxoisoindolin-2-yl)piperidine-2,6-dione]
